Like-named read-outs stand apart in the source and are kept apart here.
Columns and labels:
[1] = Example 4: Phase I single-dose crossover bioequivalence study, 2.5 mg versus 2 mg tablets, healthy adult volunteers; format: in vivo, human
Procedure: Objectives: The objective of this study was to investigate the bioequivalence of guanfacine 2.5 mg tablets versus guanfacine 2 mg tablets.
Methods: This Phase I study utilized a randomized, open-label, single-dose, three-treatment crossover design. Forty-eight (48) healthy adult volunteers completed the study. All subjects were randomly assigned to one of 6 treatment sequences and received a 2 mg and 2.5 mg tablet of guanfacine. During treatment periods 1-3, subjects received their assigned treatment (a single oral dose 2 mg or 2.5 mg after an overnight fast).

[2] = Example 2: open-label dose-escalation pharmacokinetic and safety study in children and adolescents with ADHD; format: in vivo, human; conditions: for AUC(0-t) / AUC(0-inf) / Cmax / Tmax / half-life / Vd/F: both sexes, human, plasma; for Vd/F: read-out: Vz/F
Procedure: Objective: The objective of this study was to assess the pharmacokinetics of controlled-release guanfacine after a single 2 mg dose or multiple doses of 2 mg and 4 mg from Table 2.
Methods: An open-label, dose-escalation study in male and female children (aged 6-12 years) and adolescents (aged 13-17 years) with ADHD. Subjects weighed 25 kg (55 lb) or more but were not considered overweight in the opinion of the investigator. Their electrocardiogram readings (ECGs) were within normal ranges, and their blood pressure measurements were within the 95th percentile for their age, height, and gender. […] Informed consent was given by the patient's parent or guardian.
[…] The dose was then titrated down to 3 mg on days 30 to 32, and 2 mg on days 33 to 35. Pharmacokinetic assessments were made after the single 2 mg dose and after 6 days of repeated 2 mg and 4 mg doses.

[3] = 28 children and adolescents with ADHD, 2-4 mg qd dose escalation
[4] = po, 2 mg, single 2 mg oral dose, Day 1, adolescents 13-17 yrs, ADHD patients, N = 14
[5] = po, 2 mg, single 2 mg oral dose, Day 1, children 6-12 yrs, ADHD patients, N = 14
[6] = single 2 mg oral dose, Day 1, adolescents 13-17 yrs, ADHD patients, N = 14
[7] = single 2 mg oral dose, Day 1, children 6-12 yrs, ADHD patients, N = 14

N=C(N)NC(=O)Cc1c(Cl)cccc1Cl [guanfacine]
AUC(0-t) ([1]; human, in vivo, po, 2.5 mg, AUC0-last): 77.8 ± 30.4 ng·h/mL
Cmax ([1]; human, in vivo, po, 2.5 mg, Cmax): 2.26 ± 0.67 ng/mL
Tmax ([1]; human, in vivo, po, 2.5 mg, Tmax): 5 h
half-life ([1]; human, in vivo, po, 2.5 mg, T½): 19 ± 6.6 h
Vd/F ([1]; human, in vivo, po, 2.5 mg, Vz/F): 915 ± 390 L
half-life ([1]; human, in vivo, t1/2): 16.7 ± 7.4 h
deaths ([1]; single 2 mg and 2.5 mg doses, healthy adults): no deaths
abnormalities on ECGs, hematologic parameters, or serum chemistries [2, 3]: No clinically significant abnormalities
discontinuations due to adverse events [2, 3]: no discontinuations
severity of most AEs [2, 3]: mild to moderate
subjects with somnolence (AE possibly or probably due to treatment) [2, 3]: 93%
subjects judged to have severe somnolence ([2]; 28 children and adolescents with ADHD, 2-4 mg qd dose escalation, 6 subjects): 21%
CL/F ([2]; Day 14, 2 mg once daily oral, adolescents 13-17 yrs, ADHD patients, N = 14): 826 ± 486 mL/min
CL/F ([2]; Day 14, 2 mg once daily oral, children 6-12 yrs, ADHD patients, N = 14): 552 ± 215 mL/min
CL/F ([2]; Day 28, 4 mg once daily oral, adolescents 13-17 yrs, ADHD patients, N = 14): 607 ± 166 mL/min
CL/F ([2]; Day 28, 4 mg once daily oral, children 6-12 yrs, ADHD patients, N = 14): 522 ± 212 mL/min
AUC(0-t) ([2]; oral, 2 mg, dose of 2 mg of guanfacine, fasted patients ages 6-12 suffering from ADHD, read-out: AUC0-last): ~56.9 ng·h/mL
AUC(0-inf) ([2]; oral, 2 mg, dose of 2 mg of guanfacine, fasted patients ages 6-12 suffering from ADHD, read-out: AUC∞): ~65.2 ng·h/mL
Cmax ([2]; oral, 2 mg, dose of 2 mg of guanfacine, fasted patients ages 6-12 suffering from ADHD, read-out: mean Cmax): ~2.55 ng/mL
Tmax ([2]; oral, 2 mg, dose of 2 mg of guanfacine, fasted patients ages 6-12 suffering from ADHD, read-out: median Tmax): ~5 h
AUC(0-t) ([2]; oral, 2 mg, dose of 2 mg of guanfacine, fasted patients ages 13-17 suffering from ADHD, read-out: AUC0-last): ~42.7 ng·h/mL
AUC(0-inf) ([2]; oral, 2 mg, dose of 2 mg of guanfacine, fasted patients ages 13-17 suffering from ADHD, read-out: AUC∞): ~47.2 ng·h/mL
Cmax ([2]; oral, 2 mg, dose of 2 mg of guanfacine, fasted patients ages 13-17 suffering from ADHD, read-out: mean Cmax): ~1.69 ng/mL
Tmax ([2]; oral, 2 mg, dose of 2 mg of guanfacine, fasted patients ages 13-17 suffering from ADHD, read-out: median Tmax): ~5 h
half-life ([2]; oral, 2 mg, measured for the 2 mg formulation, fasted patients ages 6-12 suffering from ADHD): 14.4 ± 2.4 h
half-life ([2]; oral, 2 mg, measured for the 2 mg formulation, fasted patients ages 13-17 suffering from ADHD): 17.9 ± 5.8 h
AUC(0-t) ([2]; po, 2 mg, Day 14, 2 mg once daily oral, adolescents 13-17 yrs, ADHD patients, N = 14, read-out: AUC0-24): 48.2 ± 16.1 ng·h/mL
Cmax ([2]; po, 2 mg, Day 14, 2 mg once daily oral, adolescents 13-17 yrs, ADHD patients, N = 14, read-out: Cmax): 2.86 ± 0.77 ng/mL
Tmax ([2]; po, 2 mg, Day 14, 2 mg once daily oral, adolescents 13-17 yrs, ADHD patients, N = 14, read-out: Tmax): 4.53 h
AUC(0-t) ([2]; po, 2 mg, Day 14, 2 mg once daily oral, children 6-12 yrs, ADHD patients, N = 14, read-out: AUC0-24): 70 ± 28.3 ng·h/mL
Cmax ([2]; po, 2 mg, Day 14, 2 mg once daily oral, children 6-12 yrs, ADHD patients, N = 14, read-out: Cmax): 4.39 ± 1.66 ng/mL
Tmax ([2]; po, 2 mg, Day 14, 2 mg once daily oral, children 6-12 yrs, ADHD patients, N = 14, read-out: Tmax): 4.98 h
half-life [2, 4]: 17.9 ± 5.77 h
AUC(0-t) ([2]; po, 2 mg, single 2 mg oral dose, Day 1, adolescents 13-17 yrs, ADHD patients, N = 14, read-out: AUC0-t): 42.7 ± 12.9 ng·h/mL
AUC(0-inf) ([2]; po, 2 mg, single 2 mg oral dose, Day 1, adolescents 13-17 yrs, ADHD patients, N = 14, read-out: AUC0-∞): 47.3 ± 13.7 ng·h/mL
Cmax ([2]; po, 2 mg, single 2 mg oral dose, Day 1, adolescents 13-17 yrs, ADHD patients, N = 14, read-out: Cmax): 1.69 ± 0.43 ng/mL
Tmax ([2]; po, 2 mg, single 2 mg oral dose, Day 1, adolescents 13-17 yrs, ADHD patients, N = 14, read-out: Tmax): 4.96 h
Vd/F [2, 4]: 1240 L
half-life [2, 5]: 14.4 ± 2.39 h
AUC(0-t) ([2]; po, 2 mg, single 2 mg oral dose, Day 1, children 6-12 yrs, ADHD patients, N = 14, read-out: AUC0-t): 56.9 ± 22 ng·h/mL
AUC(0-inf) ([2]; po, 2 mg, single 2 mg oral dose, Day 1, children 6-12 yrs, ADHD patients, N = 14, read-out: AUC0-∞): 65.2 ± 23.9 ng·h/mL
Cmax ([2]; po, 2 mg, single 2 mg oral dose, Day 1, children 6-12 yrs, ADHD patients, N = 14, read-out: Cmax): 2.55 ± 1.03 ng/mL
Tmax ([2]; po, 2 mg, single 2 mg oral dose, Day 1, children 6-12 yrs, ADHD patients, N = 14, read-out: Tmax): 4.98 h
Vd/F [2, 5]: 766 ± 380 L
AUC(0-t) ([2]; po, 4 mg, Day 28, 4 mg once daily oral, adolescents 13-17 yrs, ADHD patients, N = 14, read-out: AUC0-24): 117 ± 28.4 ng·h/mL
Cmax ([2]; po, 4 mg, Day 28, 4 mg once daily oral, adolescents 13-17 yrs, ADHD patients, N = 14, read-out: Cmax): 7.01 ± 1.53 ng/mL
Tmax ([2]; po, 4 mg, Day 28, 4 mg once daily oral, adolescents 13-17 yrs, ADHD patients, N = 14, read-out: Tmax): 4.97 h
AUC(0-t) ([2]; po, 4 mg, Day 28, 4 mg once daily oral, children 6-12 yrs, ADHD patients, N = 14, read-out: AUC0-24): 162 ± 116 ng·h/mL
Cmax ([2]; po, 4 mg, Day 28, 4 mg once daily oral, children 6-12 yrs, ADHD patients, N = 14, read-out: Cmax): 10.1 ± 7.09 ng/mL
Tmax ([2]; po, 4 mg, Day 28, 4 mg once daily oral, children 6-12 yrs, ADHD patients, N = 14, read-out: Tmax): 5.02 h
linearity of pharmacokinetics ([2]; single 2 mg doses and multiple 2 mg and 4 mg doses, children (6-12 years) and adolescent (13-17 years) ADHD patients): linear
CL/F [2, 6]: 815 ± 214 mL/min
λz [2, 6]: 0.0428 ± 0.0153 h⁻¹
CL/F [2, 7]: 612 ± 252 mL/min
λz [2, 7]: 0.0496 ± 0.0093 h⁻¹

Reference: patent publication US20070048371A1, “Pharmaceutical formulations/composition of guanfacine suitable for single dose form administration daily” (priority 2005, published 2007)
